Measured values from the supplement of paper PMC13380429.
± gives the standard deviation of the averaged measurements.

Columns and labels:
Settings in all cases: 72 h
Caco-2 [1] = assay: drug sensitivity score (DSS) for viability; higher = more toxic; extreme values may be limits of the assay
Vero E6 [2] = assay: as above
Calu-3 [3] = assay: as above
HepG2 [4] = assay: as above
U2OS [5] = assay: as above
Caco-2 [6] = assay: cell viability relative to DMSO; higher = less toxic
Vero E6 [7] = assay: as above
Calu-3 [8] = assay: as above
HepG2 [9] = assay: as above
U2OS [10] = assay: as above
Caco-2 [11] = assay: relative viability EC50 (midpoint between 100% and the lowest measured viability); higher = less toxic
Vero E6 [12] = assay: as above
Calu-3 [13] = assay: as above
HepG2 [14] = assay: as above
U2OS [15] = assay: as above

Structure (SMILES) | drug sensitivity score (Caco-2 [1]) | drug sensitivity score (Vero E6 [2]) | drug sensitivity score (Calu-3 [3]) | drug sensitivity score (HepG2 [4]) | drug sensitivity score (U2OS [5]) | cell viability (Caco-2 [6]; 1 nM) | cell viability (Caco-2 [6]; 10 nM) | cell viability (Caco-2 [6]; 100 nM) | cell viability (Caco-2 [6]; 1000 nM) | cell viability (Caco-2 [6]; 10000 nM) | cell viability (Vero E6 [7]; 1 nM) | cell viability (Vero E6 [7]; 10 nM) | cell viability (Vero E6 [7]; 100 nM) | cell viability (Vero E6 [7]; 1000 nM) | cell viability (Vero E6 [7]; 10000 nM) | cell viability (Calu-3 [8]; 1 nM) | cell viability (Calu-3 [8]; 10 nM) | cell viability (Calu-3 [8]; 100 nM) | cell viability (Calu-3 [8]; 1000 nM) | cell viability (Calu-3 [8]; 10000 nM) | cell viability (HepG2 [9]; 1 nM) | cell viability (HepG2 [9]; 10 nM) | cell viability (HepG2 [9]; 100 nM) | cell viability (HepG2 [9]; 1000 nM) | cell viability (HepG2 [9]; 10000 nM) | cell viability (U2OS [10]; 1 nM) | cell viability (U2OS [10]; 10 nM) | cell viability (U2OS [10]; 100 nM) | cell viability (U2OS [10]; 1000 nM) | cell viability (U2OS [10]; 10000 nM) | relative viability EC50 (Caco-2 [11]) | relative viability EC50 (Vero E6 [12]) | relative viability EC50 (Calu-3 [13]) | relative viability EC50 (HepG2 [14]) | relative viability EC50 (U2OS [15])
CN[C@H](CC(=O)O)C(=O)O [NMDA] | 0 | 0 | 0 | 0 | 0 | 101% | 97.5% | 103% | 103% | 88% | 107% | 107% | 104% | 99.5% | 107% | 85.4% | 88.6% | 87.7% | 105% | 89.4% | 99.9% | 102% | 110% | 104% | 102% | 95.1% | 96.8% | 91.7% | 102% | 91.5% | > 10 µM | > 10 µM | > 10 µM | > 10 µM | > 10 µM
On1ncc(C2CCNCC2)c1-c1cccc(-c2ccccc2)c1 [PHP-501] | 0 | 0 | 0 | 0 | 0 | 100% | 97.3% | 93% | 102% | 94.6% | 97.7% | 92.1% | 92% | 89.9% | 111% | 106% | 102% | 91.1% | 97.1% | 107% | 108% | 99.6% | 105% | 97.4% | 100% | 95.5% | 102% | 98.1% | 109% | 106% | > 10 µM | > 10 µM | > 10 µM | > 10 µM | > 10 µM
[N-]=[N+]=N[C@]1(CO)O[C@@H](n2ccc(N)nc2=O)[C@H](O)[C@@H]1O [R-1479] | 0 | 0 | 0 | 0 | 0 | 98.2 ± 3.6% | 96.2 ± 4% | 90.7% | 98.6 ± 11% | 96.7 ± 9.1% | 99 ± 3.8% | 96.4 ± 1.7% | 97.8 ± 1.7% | 94.5 ± 2.8% | 103 ± 6.7% | 91.35 ± 0.78% | 99.5 ± 4.4% | 102.8 ± 0.78% | 100 ± 2.3% | 93 ± 1.5% | 112 ± 7.2% | 94.25 ± 0.92% | 98.3 ± 2.8% | 94.7 ± 1.7% | 96.2 ± 3.6% | 98 ± 0.85% | 102 ± 2.8% | 102 ± 1.3% | 105 ± 2.5% | 100 ± 0.14% | > 10 µM | > 10 µM | > 10 µM | > 10 µM | > 10 µM
COc1cc2c(cc1O)C(CCc1ccc(Cl)cc1)N(C)CC2 (stereo not given) [Ro-04-5595] | 0 | 0 | 0 | 0.7 | 0 | 102% | 97.2% | 94.4% | 100% | 102% | 106% | 108% | 101% | 102% | 90.1% | 93% | 94.6% | 102% | 96.6% | 92.1% | 103% | 101% | 102% | 99% | 80.1% | 100% | 96.2% | 95.8% | 95.1% | 97.9% | > 10 µM | > 10 µM | > 10 µM | > 10 µM | > 10 µM
Cc1ncc(CN2CC=C(c3ccccc3)CC2)c(N)n1 [Ro-10-5824] | 0 | 0 | 0 | 0 | 0 | 102% | 105% | 96.8% | 97.1% | 96.8% | 92.7% | 108% | 88.5% | 99.2% | 108% | 103% | 95.6% | 103% | 99.5% | 99.5% | 91.8% | 104% | 108% | 115% | 112% | 101% | 95.3% | 102% | 95.8% | 96.9% | > 10 µM | > 10 µM | > 10 µM | > 10 µM | > 10 µM
COc1ccc(-n2nc(C(F)(F)F)cc2-c2ccc(Cl)cc2)cc1 [SC-560] | 0.2 | 3 | 0 | 0.6 | 0 | 101% | 99.1% | 95.7% | 92.2% | 86.6% | 98.2% | 105% | 92.6% | 100% | 44.3% | 104% | 104% | 109% | 95.3% | 108% | 106% | 104% | 104% | 91% | 87% | 102% | 99.9% | 104% | 98.8% | 100% | > 10 µM | 3.18 µM | > 10 µM | > 10 µM | > 10 µM
